# Assay results taken from PMC11224242, “Structural and functional characterization of cyclic pyrimidine-regulated anti-phage system” (Nature Communications, 2024).
# Values joined by “and” are separate entries in the source; they are usually repeats but may differ in a detail not shown here. Equal entries are not always repeated.
# Experiments:
# EaPycC = target: T1, EaPycC (Elizabethkingia anophelis, UniProt A0AAT8XUA8); assay: LC-MS/MS; type: biochemical; settings: 0.5 mM CTP, 1 μM enzyme, 25 °C overnight
# T1 construct: full-length, thioredoxin-His tag cut by TEV, extra N-terminal Gly, E. coli BL21(DE3); homodimer
# T1 sequence (A0AAT8XUA8 2-342): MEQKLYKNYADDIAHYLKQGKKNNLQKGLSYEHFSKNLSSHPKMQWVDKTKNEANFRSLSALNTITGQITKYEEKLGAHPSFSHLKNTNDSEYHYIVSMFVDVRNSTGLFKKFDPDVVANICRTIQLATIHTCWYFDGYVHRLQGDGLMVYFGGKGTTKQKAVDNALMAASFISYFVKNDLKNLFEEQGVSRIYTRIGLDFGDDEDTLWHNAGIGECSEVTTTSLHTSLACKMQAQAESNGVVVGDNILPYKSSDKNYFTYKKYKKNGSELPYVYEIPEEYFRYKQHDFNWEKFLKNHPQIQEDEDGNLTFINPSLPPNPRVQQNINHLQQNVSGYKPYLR
# NpPycTIRCNBD = NpPycTIRCNBD (Novosphingobium pentaromativorans, UniProt A0AAT8XUA9); assay: isothermal titration calorimetry; type: binding
# NpPycTIRCNBD, sequence (A0AAT8XUA9 entry or part of it): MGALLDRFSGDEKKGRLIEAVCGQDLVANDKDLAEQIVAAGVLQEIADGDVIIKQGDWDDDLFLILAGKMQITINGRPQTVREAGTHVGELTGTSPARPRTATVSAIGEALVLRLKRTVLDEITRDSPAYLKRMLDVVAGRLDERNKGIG
# From the text: isothermal titration calorimetry on NpPycTIRCNBD
# AnPycC = target: T2, AnPycC (Anabaena sp. CA = ATCC 33047, UniProt A0ACD6BAV8); assay: LC-MS/MS; type: biochemical; settings: 0.5 mM UTP, 1 μM enzyme, pH 9.0, 25 °C overnight
# T2 construct: full-length, thioredoxin-His tag cut by TEV, extra N-terminal Gly, E. coli BL21(DE3); monomer in solution, dimer in crystal
# T2 sequence (A0ACD6BAV8 1-280): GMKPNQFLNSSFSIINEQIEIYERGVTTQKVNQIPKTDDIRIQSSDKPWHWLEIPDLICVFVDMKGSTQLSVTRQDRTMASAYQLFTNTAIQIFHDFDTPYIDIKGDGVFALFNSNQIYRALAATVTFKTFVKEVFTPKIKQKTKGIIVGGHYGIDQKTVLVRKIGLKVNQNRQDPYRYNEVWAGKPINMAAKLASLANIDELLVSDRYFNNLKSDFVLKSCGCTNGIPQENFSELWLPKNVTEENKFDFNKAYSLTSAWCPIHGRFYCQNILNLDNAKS
# PsPycTIRCNBD = target: T3, PsPycTIRCNBD (Pseudovibrio sp. W64, UniProt A0ACD6BAZ5); assay: isothermal titration calorimetry; type: binding
# T3 construct: dimer with cUMP
# T3 sequence (A0ACD6BAZ5 entry or part of it): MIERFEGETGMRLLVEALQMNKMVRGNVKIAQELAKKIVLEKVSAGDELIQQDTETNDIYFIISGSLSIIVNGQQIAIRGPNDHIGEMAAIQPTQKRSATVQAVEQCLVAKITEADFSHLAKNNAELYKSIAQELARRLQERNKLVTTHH
# From the text: isothermal titration calorimetry on PsPycTIRCNBD
# AhPycTIRCNBD = target: T4, AhPycTIRCNBD (Acinetobacter haemolyticus, UniProt N9FD06); assay: isothermal titration calorimetry; type: binding
# T4 construct: gene F927_00926
# T4 sequence (N9FD06 entry or part of it): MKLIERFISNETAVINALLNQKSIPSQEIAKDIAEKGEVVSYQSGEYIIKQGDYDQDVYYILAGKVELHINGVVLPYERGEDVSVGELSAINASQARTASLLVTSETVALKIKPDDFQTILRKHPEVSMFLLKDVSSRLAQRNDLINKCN
# From the text: isothermal titration calorimetry on AhPycTIRCNBD
# [1] = target: SmPycTIRCNBD (Stenotrophomonas maltophilia); assay: isothermal titration calorimetry; type: binding
# From the text: isothermal titration calorimetry on SmPycTIRCNBD
# [2] = target: cUMP-bound PycTIR (gel-filtration data); assay: SEC; gel filtration of cUMP-bound PycTIR (Supplementary Fig. 10)
molecule,measurement,setting,value
Nc1ccn([C@@H]2O[C@@H]3COP(=O)(O)O[C@H]3[C@H]2O)c(=O)n1 [cCMP],LC-MS/MS,EaPycC,an elution peak corresponding to the cCMP product was detected
O=c1ccn([C@@H]2O[C@@H]3COP(=O)(O)O[C@H]3[C@H]2O)c(=O)[nH]1 [cUMP],Kd,NpPycTIRCNBD,1 nM
same,LC-MS/MS,AnPycC,The production of cUMP by purified AnPycC proteins was confirmed by LC-MS/MS
same,Kd,PsPycTIRCNBD,1 nM
same,Kd,AhPycTIRCNBD,820 nM
same,Kd,[1],270 nM
cUMP-bound PycTIR (gel-filtration data),stoichiometry N,[2],2 and 4
